# *1 amine or outer side, *2 acyl side, *3 side chain or, on linkers, in order; H or OH if unused. Where a SMILES comes first, the peptide text is derived from it. Bridges are numbered along the chain shown (N, C = ends). [ ]: non-standard residue; d: D form. The star is where a group is joined. NODAGA = O=C(O)CN1CCN(CC(=O)O)CCN(C(CCC(=O)*)C(=O)O)CC1; X1 = NC(=O)Nc1ccc(CC(N[*:1])C(=O)[*:2])cc1; Phe(4-Cl) = N[CH](Cc1ccc(Cl)cc1)C(=O)O
# System: well-differentiated BP and GEP neuroendocrine tumors (NET)
# Experiment: Human clinical trial, PET/CT imaging vs [^68Ga]Ga-DOTATOC PET/CT
# Assay type: in vivo
# Conditions: Subjects 1-4 and 6
# Description: The study will be a prospective, open-label, controlled, reader-blind, single center, phase I/II PET/CT study.
# The study product will be a single intravenous administration of GMP produced [^61Cu]Cu-NODAGA-LM3 followed by up to three PET/CT acquisitions. [^61Cu]Cu-NODAGA-LM3 will be administered once intravenously at an amount of 20-40 μg (or 13-26 nmol) and an activity range of 150 MBq (±25%).
# The control intervention will be [^68Ga]Ga-DOTA-TOC PET/CT (150 MBq (±25%)) (including CE-CT), is acquired as standard of care and not part of the study, but scan results will be used as comparator for the diagnostic efficacy analysis (Phase II).
# The diagnostic efficacy analysis (sensitivity, tumor uptake and image contrast (TBR), will be done in comparison with [^68Ga]Ga-DOTA-TOC PET/CT acquired as standard of care in a randomized, cross-over order. Readers of the scans will be blinded for imaging time point, tracers and clinical data and will follow a locked-read methodology. Number of Participants and Rationale: n=27 patients (including 22 patients for the sensitivity analysis powered for both superiority and non-inferiority design and 5 patients with negative [^68Ga]Ga-DOTATOC PET/CT and a positive NETest) […]
compound,measurement,value
"CC(O)C1NC(=O)C(CCCCN)NC(=O)C(Cc2ccc(NC(N)=O)cc2)NC(=O)C(Cc2ccc(O)cc2)NC(=O)C(NC(=O)C(Cc2ccc(Cl)cc2)NC(=O)CCC(C(=O)O)N2CCN(CC(=O)O)CCN(CC(=O)O)CC2)CSSCC(C(=O)NC(Cc2ccc(O)cc2)C(N)=O)NC1=O (stereo not shown) [[^61Cu]Cu-NODAGA-LM3, metal not drawn] ({NODAGA}-[Phe(4-Cl)]CY[X1]KTCY-NH2; disulfide 2-7; configuration not given here)","physiological uptake in the liver, spleen, and GI tract",very low physiological uptake

# — US20260151517A1, “SOMATOSTATIN RECEPTOR-TARGETING RADIOPHARMACEUTICALS AND USES THEREOF” (Nuclidium AG, priority 2024, published 2026)
